Assay results taken from patent publication US4223020A, “Synthetic peptides having pituitary growth hormone releasing activity” (Beckman Instruments, Inc., priority 1979, dated 1980).
Non-standard residues stand in square brackets, D forms with d. Residues, ends and D or L forms follow the SMILES beside them.

System: pituitaries removed from 20 day old female rats
Assay: In vitro growth hormone release study (incubated rat pituitaries, GH radioimmunoassay)
Type: cell-based
Settings: mean ± SEM, two pituitaries in 1 ml lactated Ringer's, 36° C.
Description: Female rats of the CD-1 strain were housed in a constant temperature room at 24° C. with 14 hours light and 10 hours darkness. The rats were fed Purina brand rat chow ab libitum.
All studies were started between 0800 and 1000 hours.
Pituitaries were removed from 20 day old female rats. Two pituitaries were incubated at 36° C. in 1 ml of lactated Ringer's solution in 10 ml polytetrafluoroethylene beakers in a Dubnoff Shaker (90 cycles/min.). The pituitaries were incubated a total of 4 hours (P1, P2, I3, and I4). After two successive one hour preincubation periods (P1, P2), the peptide was added to the incubation medium hourly for 2 hours (I3, I4).
This in vitro study was performed in triplicate and a standard radioimmunoassay of growth hormone present in the incubation medium was performed in duplicate. The hormonal activity was calculated as the difference (Δ) of growth hormone (GH) levels between I3, I4 and P2, i.e., (I3 -P2) and (I4 -P2). P values were calculated by Students' t test using six growth hormone values for each value recorded.
The growth hormone radioimmunoassay reagents were distributed by the National Institute of Arthritis and […] (NIAMDD) program. The growth hormone values were calculated in terms of nanograms (ng) of a rat standard with a growth hormone potency of 0.61 units/mg.

Compound | In vitro growth hormone release (Δ GH levels, I3-P2 and I4-P2) (0.3μg peptide) | In vitro growth hormone release (Δ GH levels, I3-P2 and I4-P2) (1μg peptide) | In vitro growth hormone release (Δ GH levels, I3-P2 and I4-P2) (10μg peptide) | In vitro growth hormone release (Δ GH levels, I3-P2 and I4-P2) (0.1μg peptide) | In vitro growth hormone release (Δ GH levels, I3-P2 and I4-P2) (100μg peptide)
NC(=O)[C@H](Cc1ccc(O)cc1)NC(=O)[C@@H](Cc1c[nH]c2ccccc12)NC(=O)[C@@H](Cc1c[nH]c2ccccc12)NC(=O)[C@@H](N)Cc1ccc(O)cc1 [H2 N--Tyr--D-Trp--D-trp--Tyr--CONH2, H2 N-Tyr-D-Trp-D-Trp-Tyr-CONH2] (H-Y[dW][dW]Y-NH2) | 345 ± 103 ng GH/ml incubation medium | 1111 ± 572 ng GH/ml incubation medium | 1898 ± 267 ng GH/ml incubation medium | – | –
H2 N-Tyr-D-Trp-D-Trp-Phe-CONH2 [H2 N--Tyr--D-Trp--D-Trp--Phe--CONH2] | – | 686 ± 82 ng GH/ml incubation medium | 1790 ± 160 ng GH/ml incubation medium | 453 ± 48 ng GH/ml incubation medium | 984 ± 355 ng GH/ml incubation medium
